Consider 27 molecules from ChEMBL document CHEMBL5244253, “Recent research progress on natural small molecule bibenzyls and its derivatives in Dendrobium species” (Eur J Med Chem, 2020).

One data set concerns K562. In words: Anti-cancer activity against human K562 cells. In kind it is functional, cell-based.
A further data set deals with Bel-7402. In words: Anti-cancer activity against human Bel-7402 cells. Type of data set: functional, cell-based.
The next data set relates to SGC-7901. The experiment in a line: Anti-cancer activity against human SGC-7901 cells. Type of data set: functional, cell-based.
A short description of data set [1]: Antioxidant activity assessed as DPPH radical scavenging activity at 100 ug/ml incubated for 30 mins by spectrophotometric analysis. Particulars: dose 100.0 µg/ml. Type of data set: functional. In general terms: DPPH is a stable violet radical that fades when it is reduced.
The subject of data set [2] is PC-12. The experiment in a line: Neurotrophic activity in rat PC-12 cells assessed as induction of NGF-mediated neurite outgrowth at 10 uM measured after 72 hrs relative to control. Type of data set: functional.
For a further data set, the system named is RAW264.7. The experiment in a line: Antiinflammatory activity in mouse RAW264.7 cells assessed as inhibition of LPS-induced NO production at 25 uM measured after 24 hrs. In kind it is functional.
Another data set deals with NCI-H23. The experiment in a line: Anti-cancer activity against human NCI-H23 cells. In kind it is functional, cell-based.
The subject of another data set is HL-60. In words: Anti-cancer activity against human HL-60 cells. Type of data set: functional, cell-based.
The target of data set [3] is Aldo-keto reductase family 1 member B1 (Homo sapiens, UniProt P15121). In words: Inhibition of aldose reductase (unknown origin) using DL-glyceraldehyde as substrate.
A short description of data set [4]: Antioxidant activity assessed as DPPH radical scavenging activity incubated for 30 mins by spectrophotometric analysis. Type of data set: functional.
A short description of data set [5]: Permeability of the compound by PAMPA-BBB assay. In kind it is ADME. Particulars: read-out: permeability. For orientation: In PAMPA a lipid-coated filter parts donor from acceptor wells.
In data set [6] the test system is PC-12. The experiment in a line: Neuroprotection against Amyloid beta (25 to 35)-induced toxicity in rat PC-12 cells assessed as increase in cell viability at 10 uM for 24 hrs by MTT assay relative to control. Type of data set: functional. For orientation: Formazan colour is commonly taken as a measure of viable cells.
Data set [7] concerns PC-12. The experiment in a line: Neuroprotection against Amyloid beta (25 to 35)-induced toxicity in rat PC-12 cells assessed as increase in cell viability at 25 uM for 24 hrs by MTT assay relative to control. In kind it is functional.
The subject of data set [8] is PC-12. In words: Neuroprotection against Amyloid beta (25 to 35)-induced toxicity in rat PC-12 cells assessed as increase in cell viability at 50 uM for 24 hrs by MTT assay relative to control. In kind it is functional.

Structures are written as SMILES.

What is called IC50 is the midpoint of a concentration-inhibition curve. `COc1cc2c(c(OC)c1O)-c1c(OC)cc(CCc3cccc(O)c3)cc1O[C@H]2[C@H](O)CO`: the figures for the IC50 in the data set on K562 and in the data set on Bel-7402 were 10.3 µM and 10 µM, respectively.

For `COc1cc(CCc2cc(O)c(OC)c(OC)c2)ccc1O`, the IC50 in the data set on SGC-7901 is 16.7 µM.

What is called inhibition is the share of the control response that was lost under treatment. As to `COc1cc(O)cc(CCc2cccc(O)c2)c1` [BATATASIN III], the inhibition in data set [1] was found to be 36.3%. In the data set on PC-12 [2], the Activity was found to be 8.2%. In addition, the inhibition at 25 µM in the data set with RAW264.7 was 21.6%.

In the data set with NCI-H23, `COc1ccc(CCc2cc(OC)c(OC)c(OC)c2)cc1OC` registered an IC50 of 252 µM.

As to `COc1ccc(CCc2cc(O)c(OC)c3c2Oc2c(cc(O)c(OC)c2O)C3Cc2ccc(OC)cc2)cc1` (centres undefined), in the data set with HL-60, the IC50 stood at 6.4 µM.

With `COc1cc(C[C@H](O)c2cc(O)cc(O)c2)ccc1O`, the inhibition at 25 µM in the data set on RAW264.7 worked out at 15%.

`COc1cc(CCc2ccc(O)c(O)c2)cc(OC)c1O` showed an IC50 in [3] of 17.8 µM.

For the molecule `COc1cc([C@@H]2Oc3cc(CCc4ccc(O)cc4)cc(OC)c3O[C@H]2CO)cc(OC)c1O`, the Activity in the data set with PC-12 [2] amounted to 9.46%.

For the molecule `COc1cc(CCc2cc(OC)c(OC)c(OC)c2)ccc1O`, the IC50 in the data set with NCI-H23 worked out at 158 µM; in [4] it was 21.8 µM.

As to `COc1cc(CCc2cc(OC)c3c(c2)O[C@@H](c2cc(OC)c(O)c(OC)c2)[C@H](CO)O3)ccc1O`, the Activity in the data set with PC-12 [2] was determined as 7.86%.

For the molecule `COc1ccc(CCc2cc(OC)c(OC3CCCC3)c(OC)c2)cc1OC`, in [5], the Papp came to 7.6 ×10⁻⁶ cm/s. For the same molecule, the results for the Activity in the data set on PC-12 [6], in the data set on PC-12 [7] and with PC-12 [8] were 54.77%, 61.02% and 72.64%, respectively.

Take `CC(C)c1ccc(CCc2cc(O)cc(O)c2)cc1`: in data set [3], inhibition was half-maximal at 513 µM (IC50).

Regarding `COC1=CC(O)(CCc2ccc(O)c(OC)c2)C=C(OC)C1=O`, the inhibition in data set [1] was found to be 35.3%. Besides, the inhibition at 25 µM with RAW264.7 was 19.7%.

On to `Oc1ccc(CCc2ccc(O)c(O)c2)cc1O`, for which the IC50 in data set [3] was 534 µM.

For the molecule `COc1cc(CCc2cccc(O)c2)cc(OC)c1O`, the results for the concentration for half-maximal inhibition (IC50) with SGC-7901 and with HL-60 were 12.8 µM and 4.48 µM, respectively.

With `COc1cc(CCc2cccc(O)c2)cc(O)c1OC`, the IC50 in the data set with K562 was 15.7 µM; in the data set on Bel-7402 it was 11.7 µM; in the data set with SGC-7901, 7.8 µM.

Consider `COc1ccc(CC2c3cc(O)cc(CCc4ccc(O)cc4)c3Oc3c2cc(O)c(OC)c3O)cc1` (centres undefined), for which, in the data set on HL-60, 2.1 µM corresponded to half-maximal inhibition (IC50).

As to `COc1cc(CCc2ccc(O)c(O)c2)cc(OC)c1`, the midpoint of inhibition in data set [3], the IC50, lay at 39.2 µM.

In data set [3], `Oc1ccc(CCc2cc(Cl)ccc2O)cc1O` displayed an IC50 of 21.8 µM.

For the molecule `COc1cc(O)cc(CCc2ccc(O)cc2)c1`, in the data set with PC-12 [2], the Activity was determined as 12.08%. In the data set with HL-60, this molecule yielded an IC50 of 25.6 µM.

As to `COc1ccc(CCc2cc(OC)c(OCc3ccccc3)c(OC)c2)cc1OC`, the Papp in data set [5] came to 8.2 ×10⁻⁶ cm/s. The Activity is listed as 58.22% in the data set on PC-12 [6], 60.89% in the data set with PC-12 [7] and 71% in the data set with PC-12 [8].

As for `Oc1cc(O)cc(CCc2ccc3c(c2)OCO3)c1`, the inhibition in [1] was found to be 88%. Moreover, in the data set with RAW264.7, the inhibition at 25 µM is 22.1%.

Take `COc1ccc(CCc2cc(OC)c(OC(=O)c3ccccc3)c(OC)c2)cc1OC`: the Papp in data set [5] was found to be 6.9 ×10⁻⁶ cm/s. The Activity with PC-12 [6] is listed as 58.18%; with PC-12 [7], 80.12%; in the data set with PC-12 [8], 100.78%.

For the molecule `COc1ccc(CC2C3=C(Cc4c2cc(O)c(O)c4OC)C(=O)c2cc(O)c4cc(O)ccc4c2C3=O)cc1` (centres undefined), in data set [4], the IC50 turned out to be 19.8 µM.

With `COc1ccc(CCc2cc(OC)c(OC(=O)c3ccc(Cl)cc3)c(OC)c2)cc1OC`, the Papp in data set [5] amounted to 6.2 ×10⁻⁶ cm/s. The Activity in the data set on PC-12 [6] came out at 56.41%; in the data set with PC-12 [7] it was 69.24%; in the data set on PC-12 [8] it was 95.62%.

With `COc1cc(CCc2ccc(O)c(O)c2)cc(O)c1O`, the IC50 in [4] worked out at 15.6 µM.

In data set [3], `Oc1cc(O)cc(CCc2ccc(F)cc2)c1` came in with an IC50 of 566 µM.
